From PubChem BioAssay (NCI)
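Grown in 96-well plates, cells were treated for 48 hours with each compound at five concentrations. Insufficient inhibition: endpoint recorded as highest concentration tested. At the GI50, growth is halved. TGI marks complete inhibition of growth.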

How the values were obtained:
Assay in all cases: DTP human tumour cell line panel, 48 h
[1] = system: OVCAR-4 ovarian
[2] = system: RPMI-8226 leukemia
[3] = system: TK-10 renal
[4] = system: NCI-H226 lung
[5] = system: OVCAR-8 ovarian
[6] = system: HL-60(TB) leukemia
[7] = system: RXF 393 renal
[8] = system: CCRF-CEM leukemia
[9] = system: A498 renal
[10] = system: MALME-3M melanoma
[11] = system: HOP-92 NSCLC
[12] = system: HCT-116 colon
[13] = system: HCC-2998 colon
[14] = system: UACC-257 melanoma
[15] = system: U251 CNS
[16] = system: MDA-MB-231 breast
[17] = system: SR leukemia
[18] = system: 786-0 renal
[19] = system: IGROV1 ovarian
[20] = system: SK-MEL-2 melanoma
[21] = system: UACC-62 melanoma
[22] = system: UO-31 renal
[23] = system: SF-539 CNS
[24] = system: SK-OV-3 ovarian
[25] = system: COLO 205 colon
[26] = system: T-47D breast
[27] = system: K-562 leukemia
[28] = system: SW-620 colon
[29] = system: EKVX NSCLC
[30] = system: SF-295 CNS
[31] = system: CAKI-1 renal
[32] = system: M14 melanoma
[33] = system: A549 NSCLC
[34] = system: SK-MEL-28 melanoma
[35] = system: BT-549 breast
[36] = system: HS 578T breast
[37] = system: SN12C renal
[38] = system: MDA-MB-435
[39] = system: DU-145 prostate
[40] = system: MCF7 breast
[41] = system: SF-268 CNS
[42] = system: PC-3 prostate
[43] = system: OVCAR-5 ovarian
[44] = system: NCI/ADR-RES ovarian
[45] = system: ACHN renal
[46] = system: HT29 colon
[47] = system: SNB-75 CNS
[48] = system: MOLT-4 leukemia
[49] = system: NCI-H522 lung
[50] = system: NCI-H23 lung
[51] = system: SK-MEL-5 melanoma
[52] = system: HOP-62 NSCLC
[53] = system: SNB-19 CNS
[54] = system: NCI-H460 lung
[55] = system: OVCAR-3 ovarian
[56] = system: LOX IMVI melanoma
[57] = system: KM12 colon
[58] = system: HCT-15 colon

**Q.** For `COc1ccc(/C=C\c2cc(OC)c(OC)c(OC)c2)cc1OC(=O)c1cccc(Cn2cc(CCOC(=O)c3cccc(Cn4nnc5c4C(=O)c4ccccc4C5=O)c3)nn2)c1`, which GI50 [1] is on record?
**A.** 40.3 nM

**Q.** And the TGI [1]?
**A.** > 100000 nM

**Q.** And the GI50 [2]?
**A.** < 10 nM

**Q.** And the TGI [2]?
**A.** > 100000 nM

**Q.** And the GI50 [3]?
**A.** 9580 nM

**Q.** What about the TGI [3] of the same compound?
**A.** 33500 nM

**Q.** What about the GI50 [4] of the same compound?
**A.** 150 nM

**Q.** What about the TGI [4] of the same compound?
**A.** > 37100 nM

**Q.** What about the GI50 [5] of the same compound?
**A.** < 10 nM

**Q.** And the TGI [5]?
**A.** > 44800 nM

**Q.** And the GI50 [6]?
**A.** < 10 nM

**Q.** What about the TGI [6] of the same compound?
**A.** 12.5 nM

**Q.** And the GI50 [7]?
**A.** < 10 nM

**Q.** And the TGI [7]?
**A.** 13600 nM

**Q.** What about the GI50 [8] of the same compound?
**A.** < 10 nM

**Q.** What about the TGI [8] of the same compound?
**A.** > 100000 nM

**Q.** And the GI50 [9]?
**A.** < 10 nM

**Q.** And the GI50 [10]?
**A.** 178 nM

**Q.** And the TGI [10]?
**A.** > 71300 nM

**Q.** What about the GI50 [11] of the same compound?
**A.** 464 nM

**Q.** And the TGI [11]?
**A.** 33700 nM

**Q.** And the GI50 [12]?
**A.** < 10 nM

**Q.** And the TGI [12]?
**A.** > 33200 nM

**Q.** And the GI50 [13]?
**A.** 36.2 nM

**Q.** What about the TGI [13] of the same compound?
**A.** > 47800 nM

**Q.** And the GI50 [14]?
**A.** 22900 nM

**Q.** And the TGI [14]?
**A.** > 100000 nM

**Q.** And the GI50 [15]?
**A.** < 10 nM

**Q.** What about the TGI [15] of the same compound?
**A.** > 100000 nM

**Q.** And the GI50 [16]?
**A.** < 10 nM

**Q.** And the TGI [16]?
**A.** 16300 nM

**Q.** And the GI50 [17]?
**A.** < 10 nM

**Q.** What about the TGI [17] of the same compound?
**A.** > 100000 nM

**Q.** And the GI50 [18]?
**A.** 101 nM

**Q.** What about the TGI [18] of the same compound?
**A.** 17500 nM

**Q.** What about the GI50 [19] of the same compound?
**A.** 25.2 nM

**Q.** What about the TGI [19] of the same compound?
**A.** 26400 nM

**Q.** What about the TGI [20] of the same compound?
**A.** 33100 nM

**Q.** What about the TGI [21] of the same compound?
**A.** 24800 nM

**Q.** What about the GI50 [22] of the same compound?
**A.** 160 nM

**Q.** And the TGI [22]?
**A.** 79500 nM

**Q.** What about the GI50 [23] of the same compound?
**A.** < 10 nM

**Q.** What about the TGI [23] of the same compound?
**A.** 134 nM

**Q.** And the GI50 [24]?
**A.** 2730 nM

**Q.** What about the TGI [24] of the same compound?
**A.** 46700 nM

**Q.** What about the GI50 [25] of the same compound?
**A.** 344 nM

**Q.** What about the GI50 [26] of the same compound?
**A.** 51600 nM

**Q.** And the TGI [26]?
**A.** > 100000 nM

**Q.** And the GI50 [27]?
**A.** < 10 nM

**Q.** And the TGI [27]?
**A.** > 100000 nM

**Q.** What about the GI50 [28] of the same compound?
**A.** < 10 nM

**Q.** What about the TGI [28] of the same compound?
**A.** > 100000 nM

**Q.** What about the GI50 [29] of the same compound?
**A.** 62 nM

**Q.** What about the TGI [29] of the same compound?
**A.** > 100000 nM

**Q.** What about the GI50 [30] of the same compound?
**A.** 31.6 nM

**Q.** And the TGI [30]?
**A.** 4360 nM

**Q.** What about the GI50 [31] of the same compound?
**A.** 45.9 nM

**Q.** And the TGI [31]?
**A.** 20100 nM

**Q.** What about the GI50 [32] of the same compound?
**A.** < 10 nM

**Q.** What about the TGI [32] of the same compound?
**A.** 10900 nM

**Q.** What about the GI50 [33] of the same compound?
**A.** 39.2 nM

**Q.** What about the TGI [33] of the same compound?
**A.** > 37900 nM

**Q.** What about the GI50 [34] of the same compound?
**A.** 11700 nM

**Q.** What about the TGI [34] of the same compound?
**A.** > 75700 nM

**Q.** What about the GI50 [35] of the same compound?
**A.** < 10 nM

**Q.** What about the TGI [35] of the same compound?
**A.** 1350 nM

**Q.** What about the GI50 [36] of the same compound?
**A.** < 10 nM

**Q.** What about the TGI [36] of the same compound?
**A.** 21400 nM

**Q.** And the GI50 [37]?
**A.** < 17.3 nM

**Q.** And the TGI [37]?
**A.** > 100000 nM

**Q.** What about the GI50 [38] of the same compound?
**A.** < 10 nM

**Q.** What about the GI50 [39] of the same compound?
**A.** < 10 nM

**Q.** And the GI50 [40]?
**A.** 21.6 nM

**Q.** What about the TGI [40] of the same compound?
**A.** > 70500 nM

**Q.** What about the GI50 [41] of the same compound?
**A.** 39.5 nM

**Q.** And the TGI [41]?
**A.** 35000 nM

**Q.** What about the GI50 [42] of the same compound?
**A.** < 10 nM

**Q.** What about the TGI [42] of the same compound?
**A.** > 100000 nM

**Q.** What about the GI50 [43] of the same compound?
**A.** 54.2 nM

**Q.** And the TGI [43]?
**A.** > 100000 nM

**Q.** And the GI50 [44]?
**A.** < 10 nM

**Q.** And the TGI [44]?
**A.** 421 nM

**Q.** And the GI50 [45]?
**A.** 15.3 nM

**Q.** What about the TGI [45] of the same compound?
**A.** > 84500 nM

**Q.** What about the GI50 [46] of the same compound?
**A.** 321 nM

**Q.** What about the GI50 [47] of the same compound?
**A.** < 10 nM

**Q.** What about the TGI [47] of the same compound?
**A.** 22100 nM

**Q.** And the GI50 [48]?
**A.** 12.9 nM

**Q.** What about the TGI [48] of the same compound?
**A.** > 100000 nM

**Q.** And the GI50 [49]?
**A.** 10.2 nM

**Q.** And the GI50 [50]?
**A.** < 10 nM

**Q.** And the TGI [50]?
**A.** 18300 nM

**Q.** And the GI50 [51]?
**A.** < 10 nM

**Q.** What about the TGI [51] of the same compound?
**A.** 47.4 nM

**Q.** And the GI50 [52]?
**A.** 38.1 nM

**Q.** What about the TGI [52] of the same compound?
**A.** 27000 nM

**Q.** What about the TGI [53] of the same compound?
**A.** 30600 nM

**Q.** And the GI50 [54]?
**A.** < 10 nM

**Q.** And the TGI [54]?
**A.** 12600 nM

**Q.** What about the GI50 [55] of the same compound?
**A.** < 10 nM

**Q.** And the GI50 [56]?
**A.** 14.9 nM

**Q.** And the TGI [56]?
**A.** > 100000 nM

**Q.** What about the GI50 [57] of the same compound?
**A.** < 13.3 nM

**Q.** What about the TGI [57] of the same compound?
**A.** > 77600 nM

**Q.** What about the GI50 [58] of the same compound?
**A.** < 10 nM

**Q.** And the TGI [58]?
**A.** > 100000 nM
